# In article PMC4480820, “Modafinil and its metabolites enhance the anticonvulsant action of classical antiepileptic drugs in the mouse maximal electroshock-induced seizure model” (Psychopharmacology, 2015):
# Read-outs that look alike come from different tables or passages of the source.
# Assays:
# [1] = system: passive avoidance performance in mice; test: Step-through passive avoidance task; assay type: in vivo, Swiss mice; conditions: median (25th; 75th percentiles), observed up to 180 s
# Protocol: The effects of combinations of modafinil (50 mg kg^−1), its metabolites (50 mg kg^−1), or GBR 12909 (25 mg kg^−1) with different classical AEDs were quantified by the step-through passive avoidance task of Venault et al. ([1986]). AEDs were administered at doses corresponding to their ED50 values from the MES test. Each animal received an AED either alone or in combination either with modafinil, sulfone, and acid metabolites or with GBR 12909 on the first day before training. The time before commencement of the training session (after drug administration) in the step-through passive avoidance task was identical to that for the MES test. Subsequently, the animals were placed in an illuminated box (10 × 13 × 15 cm) connected to a larger dark box (25 × 20 × 15 cm) equipped with an electric grid floor. Entrance of the animals to the dark box was punished by an adequate electric footshock (0.6 mA for 2 s). […] On the following day (24 h later), the pretrained animals were placed again into the illuminated box and observed for up to 180 s. Mice that avoided the dark compartment for 180 s were considered as having remembered the task. The time the mice took to enter the dark box was noted, and the median latencies (retention times) with 25th and 75th percentiles were calculated.
# [2] = system: skeletal muscular strength in mice; test: Grip strength test; assay type: in vivo, Swiss mice; conditions: mean ± S.E.M.
# Protocol: The effects of combinations of modafinil (50 mg kg^−1), sulfone and acid metabolites (50 mg kg^−1), or GBR 12909 (25 mg kg^−1) with different classical AEDs at doses corresponding to their ED50 values from the MES test on skeletal muscular strength in mice were quantified by the grip strength test of Meyer et al. ([1979]). The grip strength apparatus (BioSeb, Chaville, France) comprised a wire grid (8 × 8 cm) connected to an isometric force transducer (dynamometer). The mice were lifted by the tails so that their forepaws could grasp the grid. The mice were then gently pulled backward by the tail until the grid was released. The maximal force exerted by the mouse before losing grip was recorded. The mean of three measurements for each animal was calculated, and subsequently, the mean maximal force of eight animals per group was determined. The muscular strength in mice is expressed in N (newtons) as the means ± S.E.M. of at least eight determinations.
# [3] = system: motor coordination in mice; test: Chimney test; assay type: in vivo, Swiss mice; conditions: n = 8 mice/group
# Text: The chimney test of Boissier et al. ([1960]) was used to quantify the adverse effect potential of classical AEDs administered in combination with modafinil, its metabolites, or GBR 12909. In this test, the animals had to climb backwards up a plastic tube (3-cm inner diameter, 30 cm long), and impairment of motor performance was indicated by the inability of the mice to climb backward up the transparent tube within 60 s.
# [4] = system: MES-induced seizures in mice; design: method as in Chatterjie et al. [2004]; conditions: 300 mg kg^−1 i.p., ref Chatterjie et al. [2004], cited from earlier work; for Protection against MES-induced seizures: administered alone
# [5] = system: threshold for electroconvulsions in mice; test: Maximal electroshock seizure threshold (MEST) test; conditions: for TID20 (dose that increases threshold by 20 %): i.p., 30 min before test, from linear regression of dose vs threshold increase
# [6] = system: MES-induced seizures in mice; test: Maximal electroshock seizure (MES) test, AEDs alone and in combination; assay type: in vivo, Swiss mice; conditions: AED + vehicle (alone), i.p., 25 mA, ± S.E.M.
# Protocol: The stimulus duration was 0.2 s.
# These parameters of stimulation (maximal electroshock) typically result in all mice responding with tonic hind limb extension immediately after stimulation. The AEDs administered alone and their combination with modafinil, its metabolites, or GBR 12909 were tested for their ability to increase the number of animals not responding with tonus (i.e., protected from tonic hind limb extension) after stimulation. […] After constructing a dose-effect curve (i.e., dose in mg kg^−1 vs percentage of mice protected), the protective median effective dose (ED50) value of the AED tested was calculated according to a log-probit method by Litchfield and Wilcoxon ([1949]). […] Modafinil, its two metabolites, and GBR 12909 were tested for their ability to affect the anticonvulsive potency of AEDs.
# [7] = Total brain antiepileptic drug concentrations (fluorescence polarization immunoassay); conditions: AED + vehicle, mean ± S.E.M., n = 8
# Protocol: The whole brains of mice were removed from the skulls, weighed, harvested, and homogenized using Abbott buffer (1:2 weight/volume; Abbott Laboratories, North Chicago, IL, USA) in an Ultra-Turrax T8 homogenizer. The homogenates were then centrifuged at 10,000 g for 10 min, and the supernatant samples of 100 μl were collected and then analyzed for AED content. Total brain concentrations of CBZ, PB, PHT, and VPA were measured by a fluorescence polarization immunoassay using an analyzer (Abbott TDx) and manufacturer-supplied reagent kits (Abbott Laboratories, North Chicago, IL, USA). Total brain AED concentrations are expressed in μg g^−1 of wet brain tissue as means ± standard error of the mean (S.E.M.) of at least eight separate brain preparations.
# [8] = system: locomotor activation in mice; design: method as in Paterson et al. [2010]; conditions: ref Paterson et al. [2010]; cited from earlier work
# [9] = system: electroconvulsions in mice; design: method as in Chen et al. [2007]; conditions: ref Chen et al. [2007], cited from earlier work
# [10] = system: CYP3A4/5; conditions: human liver microsomes; ref Robertson and Hellriegel [2003]; cited from earlier work
# [11] = system: CYP2C9; conditions: human hepatocytes; ref Robertson and Hellriegel [2003]; cited from earlier work
# [12] = compound alone 50 mg kg^−1 i.p. + vehicle
# [13] = control of GBR series (Table 5)
# [14] = control of MOD, SULF and ACID series (Tables 2-4)
# [15] = i.p.: CBZ 4.3, PB 13.0, PHT 5.4, VPA 245.3 mg kg^−1 (control of MOD)
# [16] = i.p.: CBZ 5.7, PB 14.0, PHT 6.0, VPA 226.4 mg kg^−1 (control of SULF)
# [17] = i.p.: CBZ 6.4, PB 14.4, PHT 6.3, VPA 241.6 mg kg^−1 (control of ACID)
# [18] = i.p.: CBZ 11.2, PB 15.4, PHT 7.0, VPA 211.4 mg kg^−1 (control of GBR)
# [19] = GBR alone 25 mg kg^−1 i.p. + vehicle
SMILES,"Retention time [1, 12]","Grip strength [2, 12]","Motor coordination impairment (number of animals showing impairment in the chimney test) [3, 12]",TI (percentage of threshold increase over vehicle control) ([5]; 12.5 mg kg^−1 i.p.),TI (percentage of threshold increase over vehicle control) ([5]; 25 mg kg^−1 i.p.),TI (percentage of threshold increase over vehicle control) ([5]; 50 mg kg^−1 i.p.),TI (percentage of threshold increase over vehicle control) ([5]; 75 mg kg^−1 i.p.),TID20 (dose that increases threshold by 20 %) [5],"ED50 of the AED (protecting 50 % of animals against MES-induced hind limb extension) [6, 13]","ED50 of the AED (protecting 50 % of animals against MES-induced hind limb extension) [6, 14]","Brain concentration of the AED [7, 15]","Brain concentration of the AED [7, 16]","Brain concentration of the AED [7, 17]","Brain concentration of the AED [7, 18]",other results
"O=C(O)CSC(c1ccccc1)c1ccccc1 [ACID, diphenylmethylthioacetic acid]",180 (133.5; 180) s,0.961 ± 0.050 N,0/8,12.83%,22.32%,34.80%,57.82%,23.47 mg/kg,,,,,,,Toxicity at the dose tested in the MES test [4]: toxic
"NC(=O)N1c2ccccc2C=Cc2ccccc21 [CBZ, carbamazepine]",,,,,,,,,15.53 ± 1.04 mg/kg,11.23 ± 1.20 mg/kg,2.41 ± 0.48 μg g^−1 of wet brain tissue,3.76 ± 0.35 μg g^−1 of wet brain tissue,4.46 ± 0.31 μg g^−1 of wet brain tissue,6.66 ± 0.42 μg g^−1 of wet brain tissue,
Fc1ccc(C(OCCN2CCN(CCCc3ccccc3)CC2)c2ccc(F)cc2)cc1 [GBR],,,,19.18%,25.67%,44.53%,,16.37 mg/kg,,,,,,,"Retention time [1, 19]: 180 (133.5; 180) s; Grip strength [2, 19]: 0.937 ± 0.042 N; Motor coordination impairment (number of animals showing impairment in the chimney test) [3, 19]: 1/8; Dose eliciting equivalent locomotor activation [8]: 15 mg/kg; TI (percentage of threshold increase over vehicle control) ([5]; 6.25 mg kg^−1 i.p.): 11.25%"
"NC(=O)C[S+]([O-])C(c1ccccc1)c1ccccc1 (stereo not shown) [MOD, diphenylmethylsulfinylacetamide]",180 (123.5; 180) s,0.908 ± 0.053 N,0/8,−2.78%,2.78%,22.88%,35.46%,49.12 mg/kg,,,,,,,Protection against MES-induced seizures [4]: 100%; Mice protected against electroconvulsions ([9]; 22.5 mg kg^−1 i.p.): 50%; Mice protected against electroconvulsions ([9]; 45 mg kg^−1 i.p.): 70%; Mice protected against electroconvulsions ([9]; 90 mg kg^−1 i.p.): 90%; Mice protected against electroconvulsions ([9]; 180 mg kg^−1 i.p.): 70%; Dose eliciting equivalent locomotor activation [8]: 150 mg/kg; Inhibition of CYP3A4/5 [10]: weak inhibition; Inhibition of CYP2C9 [11]: inhibit
"CCC1(c2ccccc2)C(=O)NC(=O)NC1=O [PB, phenobarbital]",,,,,,,,,26.90 ± 2.15 mg/kg,20.80 ± 3.12 mg/kg,23.56 ± 1.10 μg g^−1 of wet brain tissue,23.71 ± 0.86 μg g^−1 of wet brain tissue,25.46 ± 0.84 μg g^−1 of wet brain tissue,24.18 ± 0.70 μg g^−1 of wet brain tissue,
"O=C1NC(=O)C(c2ccccc2)(c2ccccc2)N1 [PHT, phenytoin]",,,,,,,,,12.10 ± 1.20 mg/kg,11.00 ± 0.93 mg/kg,1.39 ± 0.20 μg g^−1 of wet brain tissue,1.65 ± 0.19 μg g^−1 of wet brain tissue,1.70 ± 0.15 μg g^−1 of wet brain tissue,3.22 ± 0.30 μg g^−1 of wet brain tissue,
"NC(=O)CS(=O)(=O)C(c1ccccc1)c1ccccc1 [SULF, diphenylmethylsufonylacetamide]",180 (180; 180) s,0.957 ± 0.058 N,0/8,14.24%,21.62%,32.34%,58.88%,23.57 mg/kg,,,,,,,Protection against MES-induced seizures [4]: 50%
"CCCC(CCC)C(=O)O [VPA, valproate]",,,,,,,,,286.7 ± 20.11 mg/kg,328.6 ± 13.17 mg/kg,299.73 ± 15.09 μg g^−1 of wet brain tissue,276.30 ± 11.55 μg g^−1 of wet brain tissue,346.98 ± 16.10 μg g^−1 of wet brain tissue,173.66 ± 10.36 μg g^−1 of wet brain tissue,
